From patent US11834454B2, “Alkynylphenylbenzamide compounds and applications thereof” (SHENZHEN NEWDEL BIOTECH CO., LTD., priority 2021, dated 2023) come the findings set out here.

Series [1] can be described thus: Pharmacokinetic and oral bioavailability tests in SD rats. Format: in vivo. The method, then: Pharmacokinetic and oral bioavailability tests were performed in SD rats. According to the drug's solubility, the drug was administered orally and intravenously as a single dose. Animal blood samples were collected at different time points (0, 0.5, 1, 2, 4, 6, 8, 24 hours), and added with heparin for anticoagulation, then centrifugated to obtain the supernatant. Blood samples were analyzed by HPLC-MS, and DAS2.1 was used for data analysis to detect half-life (T½), maximum blood concentration (Cmax), peak time (Tmax), area under the curve (AUC), and bioavailability (BA) and other pharmacokinetic data.

The next series deals with PDGFRB (Homo sapiens, UniProt P09619). Description: Kinase selectivity, Z'-LYTE.
PDGFRB, sequence (P09619 33-1106, species assumed): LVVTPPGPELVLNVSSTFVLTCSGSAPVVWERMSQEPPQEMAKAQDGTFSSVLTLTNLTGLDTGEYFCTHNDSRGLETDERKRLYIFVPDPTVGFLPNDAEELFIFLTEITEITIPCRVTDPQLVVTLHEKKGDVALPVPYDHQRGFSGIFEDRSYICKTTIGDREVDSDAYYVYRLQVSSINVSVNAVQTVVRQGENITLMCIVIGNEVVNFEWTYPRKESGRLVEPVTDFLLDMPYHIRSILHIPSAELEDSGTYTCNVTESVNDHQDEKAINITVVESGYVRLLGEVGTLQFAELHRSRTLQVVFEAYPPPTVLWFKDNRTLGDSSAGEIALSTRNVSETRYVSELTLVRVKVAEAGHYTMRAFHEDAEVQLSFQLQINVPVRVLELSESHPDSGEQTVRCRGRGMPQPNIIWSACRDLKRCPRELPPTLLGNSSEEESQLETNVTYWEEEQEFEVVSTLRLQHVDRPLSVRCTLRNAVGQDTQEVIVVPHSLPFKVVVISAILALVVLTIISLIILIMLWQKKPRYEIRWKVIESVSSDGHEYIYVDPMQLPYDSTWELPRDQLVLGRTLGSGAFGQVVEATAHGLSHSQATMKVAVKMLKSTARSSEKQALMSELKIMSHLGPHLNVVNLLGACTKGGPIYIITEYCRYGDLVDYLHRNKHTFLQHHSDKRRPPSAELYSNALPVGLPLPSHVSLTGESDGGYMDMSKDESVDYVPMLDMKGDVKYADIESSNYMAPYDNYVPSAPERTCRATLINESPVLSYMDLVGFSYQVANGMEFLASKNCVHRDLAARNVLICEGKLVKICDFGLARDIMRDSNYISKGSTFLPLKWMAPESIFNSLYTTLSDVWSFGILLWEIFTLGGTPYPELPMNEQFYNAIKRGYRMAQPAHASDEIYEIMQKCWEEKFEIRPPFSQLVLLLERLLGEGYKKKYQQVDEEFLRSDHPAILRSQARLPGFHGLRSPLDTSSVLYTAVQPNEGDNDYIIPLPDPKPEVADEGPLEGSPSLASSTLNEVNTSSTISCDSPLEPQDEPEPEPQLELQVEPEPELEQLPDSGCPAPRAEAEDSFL
Another series deals with T1, BaF3-ETV6-NTRK3-G696C (Homo sapiens, UniProt Q16288, G696C).
T1 construct: constructed pCDNA3.1(+) plasmid vector carrying genes such as; fused on or other part: P41212 (Transcription factor ETV6)
T1 sequence (Q16288 whole entry G696C, the tested form may be a part): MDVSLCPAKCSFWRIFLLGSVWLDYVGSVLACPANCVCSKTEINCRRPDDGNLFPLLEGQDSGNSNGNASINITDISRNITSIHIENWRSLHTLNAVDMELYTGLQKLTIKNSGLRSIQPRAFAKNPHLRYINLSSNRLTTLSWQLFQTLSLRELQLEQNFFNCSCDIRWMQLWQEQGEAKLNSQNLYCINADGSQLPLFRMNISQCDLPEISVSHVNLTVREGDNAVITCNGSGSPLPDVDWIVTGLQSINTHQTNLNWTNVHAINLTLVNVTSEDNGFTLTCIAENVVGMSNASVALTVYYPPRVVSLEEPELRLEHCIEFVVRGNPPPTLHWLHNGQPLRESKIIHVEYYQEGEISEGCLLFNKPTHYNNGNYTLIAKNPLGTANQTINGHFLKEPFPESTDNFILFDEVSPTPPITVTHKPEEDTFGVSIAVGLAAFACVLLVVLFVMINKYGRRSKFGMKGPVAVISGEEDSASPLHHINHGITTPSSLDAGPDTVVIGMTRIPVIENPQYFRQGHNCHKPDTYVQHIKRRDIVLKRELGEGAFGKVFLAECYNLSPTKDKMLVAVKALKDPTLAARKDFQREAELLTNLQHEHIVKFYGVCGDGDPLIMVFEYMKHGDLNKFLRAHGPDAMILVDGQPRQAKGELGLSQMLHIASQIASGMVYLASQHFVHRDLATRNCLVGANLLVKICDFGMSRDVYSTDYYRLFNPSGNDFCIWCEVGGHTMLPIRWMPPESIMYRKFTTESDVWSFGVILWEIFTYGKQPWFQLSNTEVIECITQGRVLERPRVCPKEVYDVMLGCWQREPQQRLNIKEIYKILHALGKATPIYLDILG
Description: Drug-resistant cell proliferation inhibition (CCK-8). Format: cell-based, mouse. The settings on record: 72 hours, read-out: drug-resistant cell viability IC50. From the text: (§1) BaF3 cells (mouse pre-B cells) used in this experiment were purchased from Japan Cell Bank, all of the monoclonal stable strains, BaF3-CD74-NTRK1-G667C, BaF3-CD74-NTRK1-F589L, BaF3-CD74-NTRK1-G595R, BaF3-CD74-NTRK1-G667A, BaF3-CD74-NTRK1-V573M, BaF3-ETV6-NTRK2-G639R, BaF3-ETV6-NTRK2-G709C, BaF3-ETV6-NTRK2-V617M, BaF3-ETV6-NTRK2-F633L, BaF3-ETV6-NTRK3-G696C, BaF3-ETV6-NTRK3-G696A, BaF3-ETV6-NTRK3-G623R, BaF3-ETV6-NTRK3-G623E, BaF3-ETV6-NTRK3-F617L and BaF3-ETV6-NTRK3-V601M were constructed by our laboratory, and were identified by experiments such as positive control, protein expression and gene sequencing.
(§2) The brief steps for stable strains construction were as follows: constructed pCDNA3.1(+) plasmid vector carrying genes such as BaF3-CD74-NTRK1-G667C, BaF3-CD74-NTRK1-F589L, BaF3-CD74-NTRK1-G595R, BaF3-CD74-NTRK1-G667A, BaF3-CD74-NTRK1-V573M, BaF3-ETV6-NTRK2-G639R, BaF3-ETV6-NTRK2-G709C, BaF3-ETV6-NTRK2-V617M, BaF3-ETV6-NTRK2-F633L, BaF3-ETV6-NTRK3-G696C, BaF3-ETV6-NTRK3-G696A, BaF3-ETV6-NTRK3-G623R, BaF3-ETV6-NTRK3-G623E, BaF3-ETV6-NTRK3-F617L and BaF3-ETV6-NTRK3-V601M; the plasmid was electroporated into Ba/F3 cells using Amaxa® Cell Line Nucleofector® Kit V; 48 hours after of electroporation, geneticin (G418) with a final concentration of 1000 μg/mL was added to screen for two weeks, and the interleukin 3 (IL3) was removed to continue screening to obtain polyclonal stable strains; and then single clones were selected by limiting dilution method; the stable strains were then identified by the positive drugs, Western Blot (WB), and gene sequencing; the correct monoclonal through identification can be used to study the cell proliferation inhibitory activity of the inhibitors.
(§3) Cell proliferation inhibitory activity study: The cells in logarithmic growth phase were seeded into 96-well plates at 8000-12000 cells/well, and the inhibitors at different concentrations of (0-10 μM) were added the next day, and the culture was continued for 72 hours; then 10 μL of Cell Counting Kit-8 Cell Counting Reagent (CCK-8 Reagent) was added to each well, and continued to incubate for 1-3 hours; then its absorbance at 450 nm and 650 nm were measured with a super microplate reader. The median inhibitory concentration (IC50) was calculated using medical graphing software (GraphPad Prism 8.0.0).

A further series has as its target T2, BaF3-CD74-NTRK1-F589L (Homo sapiens, UniProt P04629, F589L).
T2 construct: fused on or other part: P04233 (HLA class II histocompatibility antigen gamma chain)
The series is described as above. The settings on record: 72 hours, read-out: drug-resistant cell viability IC50. Format: cell-based, mouse.
Excerpt: as §1, §2, §3

The target in a further series is T3, BaF3-ETV6-NTRK3-G623R (Homo sapiens, UniProt Q16288, G623R).
T3 construct: constructed pCDNA3.1(+) plasmid vector carrying genes such as; fused on or other part: P41212 (Transcription factor ETV6)
T3 sequence (Q16288 whole entry G623R, the tested form may be a part): as the sequence (Q16288 whole entry G696C, the tested form may be a part) above, with G623R, C696G counted along it
The series is described as above. The settings on record: 72 hours, read-out: drug-resistant cell viability IC50. It counts as cell-based, mouse.
Excerpt: as §1, §2, §3

For a further series, the target named is T4, BaF3-ETV6-NTRK3-V601M (Homo sapiens, UniProt Q16288, V601M).
T4 construct: constructed pCDNA3.1(+) plasmid vector carrying genes such as; fused on or other part: P41212 (Transcription factor ETV6)
T4 sequence (Q16288 whole entry V601M, the tested form may be a part): as the sequence (Q16288 whole entry G696C, the tested form may be a part) above, with V601M, C696G counted along it
The series is described as above. Format: cell-based, mouse. The note with it: 72 hours, read-out: drug-resistant cell viability IC50.
Excerpt: as §1, §2, §3

Another series concerns the target T5, BaF3-CD74-NTRK1-G667C (Homo sapiens, UniProt P04629, G667C).
T5 construct: fused on or other part: P04233 (HLA class II histocompatibility antigen gamma chain)
The series is described as above. The settings on record: 72 hours, read-out: drug-resistant cell viability IC50. It counts as cell-based, mouse.
Excerpt: as §1, §2, §3

Another series deals with T6, BaF3-CD74-NTRK1-G667A (Homo sapiens, UniProt P04629, G667A).
T6 construct: constructed pCDNA3.1(+) plasmid vector carrying genes such as; fused on or other part: P04233 (HLA class II histocompatibility antigen gamma chain)
T6 sequence (P04629 510-796 G667A limits assumed): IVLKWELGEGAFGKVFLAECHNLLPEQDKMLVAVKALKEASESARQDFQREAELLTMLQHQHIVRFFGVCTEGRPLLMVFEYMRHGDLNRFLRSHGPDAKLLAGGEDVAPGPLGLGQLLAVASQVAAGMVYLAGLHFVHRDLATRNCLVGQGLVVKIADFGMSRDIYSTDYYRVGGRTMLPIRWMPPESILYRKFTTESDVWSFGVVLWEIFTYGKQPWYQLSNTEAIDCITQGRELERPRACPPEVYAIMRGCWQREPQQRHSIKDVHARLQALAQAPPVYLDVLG
The series is described as above. Format: cell-based, mouse. The settings on record: 72 hours, read-out: drug-resistant cell viability IC50.
Excerpt: as §1, §2, §3

The target in another series is T7, BaF3-ETV6-NTRK3-G696A (Homo sapiens, UniProt Q16288, G696A).
T7 construct: constructed pCDNA3.1(+) plasmid vector carrying genes such as; fused on or other part: P41212 (Transcription factor ETV6)
T7 sequence (Q16288 whole entry G696A, the tested form may be a part): as the sequence (Q16288 whole entry G696C, the tested form may be a part) above, with C696A counted along it
The series is described as above. Format: cell-based, mouse. The note with it: 72 hours, read-out: drug-resistant cell viability IC50.
Excerpt: as §1, §2, §3

A further series concerns the target T8, TRKA (Homo sapiens, UniProt P04629).
T8 construct: purchased American Life Technologies PV3144
Description: Z'-LYTE kinase activity detection, TRKA. It counts as biochemical.

Another series deals with SRC (Homo sapiens, UniProt P12931). The experiment in a line: Kinase selectivity, Z'-LYTE.
SRC, sequence (P12931 whole entry, species assumed): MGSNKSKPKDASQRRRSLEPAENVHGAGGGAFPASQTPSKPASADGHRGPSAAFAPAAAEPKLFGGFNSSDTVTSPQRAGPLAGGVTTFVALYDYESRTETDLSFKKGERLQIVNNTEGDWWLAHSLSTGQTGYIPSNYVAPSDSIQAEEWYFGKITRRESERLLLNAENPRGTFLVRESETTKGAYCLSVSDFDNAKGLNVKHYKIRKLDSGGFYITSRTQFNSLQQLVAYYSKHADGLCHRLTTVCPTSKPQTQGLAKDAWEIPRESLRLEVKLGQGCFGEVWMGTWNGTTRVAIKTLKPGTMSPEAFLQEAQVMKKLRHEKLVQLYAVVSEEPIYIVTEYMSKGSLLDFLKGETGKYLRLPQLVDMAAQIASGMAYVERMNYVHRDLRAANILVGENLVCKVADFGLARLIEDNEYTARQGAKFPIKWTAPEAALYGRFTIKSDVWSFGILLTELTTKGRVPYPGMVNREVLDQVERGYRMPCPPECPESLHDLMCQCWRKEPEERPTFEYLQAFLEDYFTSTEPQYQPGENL
Another series has as its target T9, BaF3-ETV6-NTRK2-G709C (Homo sapiens, UniProt Q16620, G693C).
T9 construct: constructed pCDNA3.1(+) plasmid vector carrying genes such as; fused on or other part: P41212 (Transcription factor ETV6)
The experiment in a line: Drug-resistant cell proliferation inhibition (CCK-8). The note with it: 72 hours, read-out: drug-resistant cell viability IC50. It counts as cell-based, mouse.
Excerpt: as §1, §2, §3

[2] abbreviates: Sprague-Dawley (SD), rat, plasma, intravenous injection, 2.0 mg/kg.
Where [3] appears, read: Sprague-Dawley (SD), rat, plasma, oral, 10.0 mg/kg.

pIC50: −log10 of the molar value.

T5 sequence (P04629 510-796 G667C limits assumed): as the sequence (P04629 510-796 G667A limits assumed) above, with A158C counted along it
T8 sequence (P04629 33-796): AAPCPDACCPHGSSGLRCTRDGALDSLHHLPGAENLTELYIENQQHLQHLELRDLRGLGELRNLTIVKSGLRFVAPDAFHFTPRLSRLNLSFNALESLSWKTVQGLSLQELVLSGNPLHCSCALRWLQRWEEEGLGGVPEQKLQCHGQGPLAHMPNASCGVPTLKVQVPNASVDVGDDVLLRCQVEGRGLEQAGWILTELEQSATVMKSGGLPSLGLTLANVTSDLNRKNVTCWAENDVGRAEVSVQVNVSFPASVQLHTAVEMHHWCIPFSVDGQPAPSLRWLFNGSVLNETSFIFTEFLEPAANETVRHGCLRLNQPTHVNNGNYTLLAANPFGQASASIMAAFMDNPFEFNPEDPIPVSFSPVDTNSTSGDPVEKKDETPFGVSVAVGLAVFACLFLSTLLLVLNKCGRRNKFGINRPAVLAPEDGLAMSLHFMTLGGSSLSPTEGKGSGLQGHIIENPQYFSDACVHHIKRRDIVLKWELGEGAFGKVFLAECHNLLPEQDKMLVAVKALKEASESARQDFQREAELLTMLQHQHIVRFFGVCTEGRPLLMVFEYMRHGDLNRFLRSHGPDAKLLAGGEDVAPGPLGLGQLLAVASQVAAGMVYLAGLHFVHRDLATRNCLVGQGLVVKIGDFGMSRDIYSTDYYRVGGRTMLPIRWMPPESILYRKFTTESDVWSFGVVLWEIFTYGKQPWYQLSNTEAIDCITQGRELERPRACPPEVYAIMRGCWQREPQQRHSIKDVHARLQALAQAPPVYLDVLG
T9 sequence (Q16620 538-822 G693C limits assumed): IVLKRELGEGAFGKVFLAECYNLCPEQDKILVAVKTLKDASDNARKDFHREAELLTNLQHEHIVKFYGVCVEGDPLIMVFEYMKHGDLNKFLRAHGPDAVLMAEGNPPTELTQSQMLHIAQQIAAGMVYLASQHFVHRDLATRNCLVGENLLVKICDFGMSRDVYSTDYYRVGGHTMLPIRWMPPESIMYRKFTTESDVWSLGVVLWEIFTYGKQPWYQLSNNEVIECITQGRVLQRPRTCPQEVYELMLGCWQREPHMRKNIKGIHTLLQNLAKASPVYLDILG
T2 sequence (P04629 510-796 F589L limits assumed): as the sequence (P04629 510-796 G667A limits assumed) above, with F80L, A158G counted along it
Description for PDGFRB: (§4) Enzymatic reaction: In a 384-well plate, added 5 μL of enzyme-substrate system [50 mM 4-hydroxyethylpiperazineethanesulfonic acid (HEPES) pH 7.5, 0.01% BRIJ-35, 10 mM of magnesium chloride (MgCl2), 1 mM of ethylene glycol bis(2-aminoethyl ether)tetraacetic acid (EGTA), 2 μM of Tyr 01 peptide substrate], transferred 5 nL of compound (concentration gradient) using an Echo520 Ultra-Micro Liquid Pipetting System. […] Shaked and mixed, then centrifuged, and reacted at 30° C. in the dark for 1.5 hours.
Description for SRC: as §4

Consider `Cc1c(C#Cc2cnc3ccc(N4CCC(O)CC4)nn23)cccc1C(=O)Nc1cc(Cl)cc(C(F)(F)F)c1` [XS3-55, N-(3-CHLORO-5-(TRIFLUOROMETHYL)PHENYL)-3-((6-(4-HYDROXYPIPERIDIN-1-YL)IMIDAZO[1,2-B]PYRIDAZINE-3-YL)ETHYNYL)-2-METHYLBENZAMIDE], for which the AUC(0-inf) (commonly total exposure, with the tail of the curve extrapolated) in [1] (setting [2]) worked out at 549 µg·h/mL; in series [1] (setting [3]), 878 µg·h/mL. Besides, the AUC(0-t) – broadly, the area under the concentration-time curve up to a stated or last time point – in series [1] (setting [2]) was found to be 358 µg·h/mL; in series [1] (setting [3]) it was 561 µg·h/mL. Further, the Cmax (as a rule, the highest concentration seen after dosing) was 46100 ng/mL in series [1] (setting [2]) and 44100 ng/mL in series [1] (setting [3]). In addition, the Tmax (as a rule, the time from dosing to the highest level) in series [1] (setting [2]) came to 0.08 h; in series [1] (setting [3]) it was 4 h. Besides, the half-life (commonly the time in which the quantity being followed falls by half) in [1] (setting [2]) is 964 min; in [1] (setting [3]) it was 911 min. Besides, the clearance in [1] (Sprague-Dawley (SD), rat, plasma, intravenous injection, 2.0 mg/kg, read-out: Clearance rate (converted)) is 3.65 mL/h/kg. For the same compound, the BA in [1] (oral 10.0 mg/kg vs intravenous 2.0 mg/kg) stood at 31.32%. The pIC50 – broadly, the negative decadic logarithm of the IC50, by convention in mol/L – at PDGFRB is under 5.00; at BaF3-ETV6-NTRK3-G696C, over 8.00; at BaF3-CD74-NTRK1-F589L it was 6.00 to 7.00; on BaF3-ETV6-NTRK3-G623R it was 6.00 to 7.00; at BaF3-ETV6-NTRK3-V601M, over 8.00; on BaF3-CD74-NTRK1-G667C, over 8.00. The pIC50 at BaF3-CD74-NTRK1-G667A was over 8.00; on BaF3-ETV6-NTRK3-G696A, over 8.00; on TRKA, over 8.00; on SRC it was 6.28.

Turning to `Cc1c(C#Cc2cnc3ccc(N4CCOCC4)nn23)cccc1C(=O)Nc1cc(CN2CCN(C)CC2)cc(C(F)(F)F)c1` [XS3-68, 2-METHYL-N-(3-((4-METHYLPIPERAZIN-1-YL)METHYL)-5-(TRIFLUOROMETHYL)PHENYL)-3-((6-METHYLENE) LINOIMIDAZO[1,2-B]PYRIDAZIN-3-YL)ETHYNYL)BENZAMIDE], the pIC50 at BaF3-ETV6-NTRK3-G696C was over 8.00; at BaF3-CD74-NTRK1-F589L, 6.00 to 7.00; on BaF3-ETV6-NTRK3-G623R, 7.00 to 8.00; at BaF3-ETV6-NTRK3-V601M it was over 8.00; on BaF3-CD74-NTRK1-G667C, over 8.00; at BaF3-ETV6-NTRK2-G709C, over 8.00. The pIC50 at BaF3-CD74-NTRK1-G667A, on BaF3-ETV6-NTRK3-G696A and against TRKA was over 8.00 in each case.

For `Cc1c(C#Cc2cnc3ccc(N4CCC(O)CC4)nn23)cccc1C(=O)Nc1cc(CN2CCN(C)CC2)cc(C(F)(F)F)c1` [XS3-81, 3-((6-(4-HYDROXYPIPERIDIN-1-YL)IMIDAZO[1,2-B]PYRIDAZIN-3-YL)ETHYNYL)-2-METHYL-N-(3-(((4-METHYLPIPERAZIN-1-YL)METHYL)-5-(TRIFLUOROMETHYL)PHENYL)BENZAMIDE], the pIC50 at BaF3-ETV6-NTRK3-G696C is over 8.00; at BaF3-CD74-NTRK1-F589L, 6.00 to 7.00; on BaF3-ETV6-NTRK3-G623R it was 7.00 to 8.00; on BaF3-ETV6-NTRK3-V601M it was over 8.00; at BaF3-CD74-NTRK1-G667C it was over 8.00; at BaF3-ETV6-NTRK2-G709C it was 7.00 to 8.00. For the same compound, the pIC50 on BaF3-CD74-NTRK1-G667A, at BaF3-ETV6-NTRK3-G696A and on TRKA was over 8.00 throughout.

`Cc1cn(-c2cc(NC(=O)c3cccc(C#Cc4cnc5ccc(N6CCC(O)CC6)nn45)c3C)cc(C(F)(F)F)c2)cn1` [XS3-87, 3-((6-(4-HYDROXYPIPERIDIN-1-YL)IMIDAZO[1,2-B]PYRIDAZIN-3-YL)ETHYNYL)-2-METHYL-N-(3-(4-METHYL-1H-IMIDAZOL-1-YL)-5-(TRIFLUOROMETHYL)PHENYL)BENZAMIDE]: the pIC50 on BaF3-ETV6-NTRK3-G696C was over 8.00; at BaF3-CD74-NTRK1-F589L, 7.00 to 8.00; at BaF3-ETV6-NTRK3-G623R, 7.00 to 8.00; at BaF3-ETV6-NTRK3-V601M, over 8.00; on BaF3-CD74-NTRK1-G667C it was over 8.00; at BaF3-ETV6-NTRK2-G709C it was over 8.00. The pIC50 on BaF3-CD74-NTRK1-G667A, at BaF3-ETV6-NTRK3-G696A and against TRKA was over 8.00 throughout.
